Data taken from patent US11236055B2 (Venenum Biodesign, LLC, priority 2016, dated 2022).

What was measured:
[1] = Pharmacokinetic profile in mice; format: in vivo; conditions: mouse; fasted male Hilltop mice, 10 mg/kg oral gavage, plasma, mean of three mice
Experimental: Pharmacokinetic Profile in Mice
In this series of studies, the pharmacokinetic profile characteristics of compounds of the present invention were evaluated. The plasma concentration levels of the compounds were monitored in the blood stream (i.e., plasma) after oral gavage using Cmax, and area under the curve (AUC).
8 week old male Hilltop mice were fasted overnight. Animals were randomized into groups (n=9) by body weight. Mice were dosed with 10 mg/kg compound (in 20% PEG400/80% 0.5% carboxymethylcellulose (medium viscosity)+0.25% Tween-80) at a volume of 10 mL/kg through oral gavage. Blood was collected via orbital bleeding at 0, 0.25, 0.5, 1, 2, and 4 h post-dose, with no one mouse having more than 3 blood draws. Blood was collected in EDTA coated tubes. Samples were stored at −20° C. until analysis.
Quantitation of compound levels in plasma was accomplished by LC-MS/MS analysis. Standard curve and quality control samples were prepared in male CD-1 mouse plasma containing EDTA K^2+ as an anticoagulant at final concentrations ranging from 500 to 0.1 ng/mL. The plasma samples, calibration curve standards, and quality control samples were prepared in an identical method in a 96-well deep plate (1 mL) with a quenching solution (1:1 mixed acetonitrile:methanol containing the internal standard Reserpine @ 400 ng/mL). Low volume samples were supplemented with CD-1 mouse plasma. The plate was mixed on multi-tube votex for 1 min and centrifuged at 4000 rpm for 30 min at 4° C. (Sorvall® Super T21) before LC-MS/MS analysis. LC conditions were developed and optimized based on each compound as needed. The outlet of the column was coupled to AB Sciex 4000 QTrap Mass Spectrometer (AB Sciex, Brugg Switzerland). Detection was carried out using multiple reaction monitoring mode with positive-ion detection focusing. The pharmacokinetic parameters were derived from the plasma-time data and calculated using the standard non-compartmental method with WinNonlin (Pharsight, Mountain View, Calif.) or PK Solver (Comp. Meth. Prog. Biomed. (2010), 99, 306-314).
Values reported are the mean plasma concentration of three mice.

Mouse STC-1 cells = experiment: STC-1 GLP-1 assay; format: cell-based; conditions: GLP-1 secretion, 2 h, coded A-C, read-out: Mouse STC-1 HTRF GLP-1 Activity (EC50)
Experimental: We evaluated Compounds of the present invention for their ability to induce GLP-1 production in mouse intestinal neuroendocrine tumor cells. Mouse STC-1 cells were cultured and maintained in high glucose DMEM (Sigma #5796) supplemented with 15% horse serum, 5% Fetal Bovine Serum (FBS), 1% penicillin/streptomycin, and 2 mM L-alanine L-glutamine (GlutaMax). Two days prior to analysis of GLP-1 secretion cells were harvested using Accutase (Sigma), spun down then resuspended in high glucose DMEM media containing 2 mM L-alanine L-glutamine (GlutaMax), 10% charcoal-dextran stripped FBS, and 50 μg/mL Gentamicin, at a density of 100,000 cells/mL. 100 μL of cell suspension was added to each well of a 96-well Poly-D-Lysine coated culture plate (Sigma; cat #2382493) and was incubated at 37° C. with 5% CO2.
Compounds were initially diluted in 100% DMSO (12-point serial dilution by half logs) in a 96-well plate and then were further diluted 1:500 in Hanks' Balanced Salt Solution (HBSS) containing protease inhibitor cocktail, DPP-IV inhibitor, and 0.1% fatty acid free bovine serum albumin. On the day of the experiment cells were washed once with HBSS. After wash, 100 μL of test compound was added to each well. The plate was incubated at 37° C. with 5% CO2 for 2 h. Supernatants were collected and GLP-1 secretion was measured using the Cisbio™ Active GLP-1 HTRF Assay Kit (Cisbio). Briefly, Anti-GLP-1-d2 conjugate and Anti-GLP-1 Terbium Cryptate conjugate stock solutions were prepared as per kit instructions. The two solutions were pre-mixed and 10 μL were transferred to a 384-well low volume plate (Greiner; cat #784075). 10 μL of collected supernatants were added to wells already containing the conjugate solution. The plate was covered and incubated at room temperature overnight. The plate was read on an Envision™ plate reader (Perkin Elmer).
In Table 34, EC50 values obtained from the STC-1 GLP-1 production assay for compounds of the present invention are summarized.

Row | Compound | Cmax [1] [ng/mL] | EC50 (Mouse STC-1 cells) [nM]
1 | CCc1cnccc1-c1cccc([C@H](C)N(CCCC(=O)NC[C@@H](O)[C@H](O)[C@@H](O)[C@@H](O)CO)S(=O)(=O)c2cccc(Cl)c2C)c1 [Compound 20AN, 4-(3-chloro-N-((S)-1-(3-(3-ethylpyridin-4-yl)phenyl)ethyl)-2-methylphenylsulfonamido)-N-((2R,3S,4S,5S)-2,3,4,5,6-pentahydroxyhexyl)butanamide] | 1.7 | 100 to 999
2 | CCc1cnccc1-c1cccc(C2CN(C(=O)CCC(=O)O)CCN2S(=O)(=O)c2cccc(Cl)c2C)c1 (racemic) [Compound 46, (+/−) 4-(4-((3-Chloro-2-methylphenyl)sulfonyl)-3-(3-(3-ethylpyridin-4-yl)phenyl)piperazin-1-yl)-4-oxobutanoic acid] | 436 | 100 to 999
3 | CCc1cnccc1-c1cccc(C(C)(C)NS(=O)(=O)c2ccccc2C(F)(F)F)c1 [Compound 5, N-(2-(3-(3-ethylpyridin-4-yl)phenyl)propan-2-yl)-2-(trifluoromethyl)benzenesulfonamide] | 3.1 | 100 to 999
4 | Cc1cnccc1-c1cccc(C(C)(C)N(CCCC(=O)NC[C@@H](O)[C@H](O)[C@@H](O)[C@@H](O)CO)S(=O)(=O)c2cccc(Cl)c2C)c1 [Compound 20AF, 4-(3-chloro-2-methyl-N-(2-(3-(3-methylpyridin-4-yl)phenyl)propan-2-yl)phenylsulfonamido)-N-((2R,3S,4S,5S)-2,3,4,5,6-pentahydroxyhexyl)butanamide] | 5.2 | 100 to 999
5 | CCc1cnccc1-c1cccc([C@H](C)N(CCCC(=O)NCCS(=O)(=O)O)S(=O)(=O)c2ccccc2C(F)(F)F)c1 [Compound 20BF, (S)-2-(4-(N-(1-(3-(3-ethylpyridin-4-yl)phenyl)ethyl)-2-(trifluoromethyl)phenylsulfonamido)butanamido)ethanesulfonic acid] | 0.8 | 100 to 999
6 | Cc1cnccc1-c1cccc(C(C)(C)N(CCCC(=O)NCS(=O)(=O)O)S(=O)(=O)c2ccccc2C(F)(F)F)c1 [Compound 20AB] | 1.5 | 100 to 999
7 | CCc1cnccc1-c1cccc([C@H](C)N(CCCC(=O)NCCS(=O)(=O)O)S(=O)(=O)c2ccccc2C)c1 [Compound 20AR, (S)-2-(4-(N-(1-(3-(3-ethylpyridin-4-yl)phenyl)ethyl)-2-methylphenyl-sulfonamido)butanamido)ethane sulfonic acid] | 3.2 | 100 to 999
8 | CCc1cnccc1-c1cccc([C@H](C)N(CCCC(=O)NCCCS(=O)(=O)O)S(=O)(=O)c2cccc(Cl)c2C)c1 [Compound 20AM, (S)-3-(4-(3-chloro-N-(1-(3-(3-ethylpyridin-4-yl)phenyl)ethyl)-2-methylphenylsulfonamido)butanamido)propane-1-sulfonic acid] | 0.9 | 100 to 999
9 | Cc1cnccc1-c1cccc([C@H](C)N(CCCC(=O)NCCS(=O)(=O)NCCCC(=O)O)S(=O)(=O)c2ccccc2C(F)(F)F)c1 [Compound 20BK] | 0.4 | 1000 to 30000
10 | Cc1cnccc1-c1cccc([C@H](C)N(CCCCC(=O)NCCS(=O)(=O)NCC(=O)O)S(=O)(=O)c2ccccc2C(F)(F)F)c1 [Compound 20BL, (S) 2-(4-(N-(1-(3-(3-methylpyridin-4-yl)phenyl)ethyl)-2-(trifluoromethyl)phenylsulfonamidopentanamido)ethylsulfonamido)acetic acid] | 1.2 | 1000 to 30000
11 | Cc1cnccc1-c1cccc(C(C)(C)N(CCCC(=O)NCCS(=O)(=O)NCC(=O)O)S(=O)(=O)c2cccc(Cl)c2C)c1 [Compound 20AW, (4-(3-chloro-2-methyl-N-(2-(3-(3-methylpyridin-4-yl)phenyl)propan-2-yl)phenylsulfonamido)-N-butanamidoethylsulfonamido)acetic acid] | 2.8 | –
12 | Cc1cnccc1-c1cccc(C(C)(C)N(CCCC(=O)NCCS(=O)(=O)O)S(=O)(=O)c2ccccc2C(F)(F)F)c1 [Compound 20AA, 2-(4-(N-(2-(3-(3-methylpyridin-4-yl)phenyl)propan-2-yl)-2-(trifluoromethyl)phenylsulfonamido)butanamido)ethanesulfonic acid] | 7.2 | 100 to 999
13 | CCc1cnccc1-c1cccc([C@H](C)N(CCCC(=O)NCCS(=O)(=O)NCC(=O)O)S(=O)(=O)c2ccccc2C)c1 [Compound 20BU, (S)-2-(4-(2-methyl-N-(1-(3-(3-ethylpyridin-4-yl)phenyl)ethyl)phenylsulfonamido)butanamidoethylsulfonamido)acetate] | 1.1 | 100 to 999
14 | Cc1cnccc1-c1cccc(C(C)(C)N(CCCC(=O)NCCCS(=O)(=O)O)S(=O)(=O)c2cccc(Cl)c2C)c1 [Compound 20AD, 3-(4-(3-chloro-2-methyl-N-(2-(3-(3-methylpyridin-4-yl)phenyl)propan-2-yl)phenylsulfonamido)butanamido)propane-1-sulfonic acid] | 2.5 | –

The next lines start with the values.

Row | Cmax [1] [ng/mL] | EC50 (Mouse STC-1 cells) [nM] | Compound
15 | 4.4 | 100 to 999 | Cc1cnccc1-c1cccc([C@H](C)N(CCCCNC(=O)CS(=O)(=O)O)S(=O)(=O)c2ccccc2C(F)(F)F)c1 [Compound 31AA, (S)-2-((4-(N-(1-(3-(3-methylpyridin-4-yl)phenyl)ethyl)-2-(trifluoromethyl)phenylsulfonamido)butyl)amino)-2-oxoethanesulfonic acid]
16 | 39.4 | 100 to 999 | CCc1cnccc1-c1cccc([C@H](C)N(CCCC(=O)NCCNS(N)(=O)=O)S(=O)(=O)c2cccc(Cl)c2C)c1 [Compound 37AA, (S)-4-(3-chloro-N-(1-(3-(3-ethylpyridin-4-yl)phenyl)ethyl)-2-methylphenylsulfonamido)-N-(2-(sulfamoylamino)ethyl)butanamide]
17 | 1.8 | 100 to 999 | Cc1cnccc1-c1cccc([C@H](C)N(CCCCNC(=O)[C@@H](N)CS(=O)(=O)O)S(=O)(=O)c2ccccc2C(F)(F)F)c1 [Compound 31AC, (R)-2-amino-3-((4-(N-((S)-1-(3-(3-methylpyridin-4-yl)phenyl)ethyl)-2-(trifluoromethyl)phenylsulfonamido)butyl)amino)-3-oxopropane-1-sulfonic acid]
18 | 1.5 | 100 to 999 | Cc1cnccc1-c1cccc(C(C)(C)N(CCCNC(=O)NCCS(=O)(=O)O)S(=O)(=O)c2cccc(Cl)c2C)c1 [Compound 29AA, 2-(3-(3-((3-Chloro-2-methyl-N-(2-(3-(3-methylpyridin-4-yl)phenyl)propan-2-yl)phenyl)sulfonamide)propyl)ureido)ethane-1-sulfonic acid]
19 | 1.9 | 100 to 999 | Cc1cnccc1-c1cccc([C@H](C)N(CCCC(=O)NCCS(=O)(=O)NCC(=O)O)S(=O)(=O)c2cccc(Cl)c2C)c1 [Compound 21AN, (S) 2-(3-(4-(3-chloro-2-methyl-N-(1-(3-(3-methylpyridin-4-yl)phenyl)ethyl)phenylsulfonamido)butanamido)ethylsulfonamido)acetic acid]
20 | 1.4 | 100 to 999 | Cc1cnccc1-c1cccc([C@H](C)N(CCCC(=O)NCCNS(=O)(=O)CC(=O)O)S(=O)(=O)c2cccc(Cl)c2C)c1 [Compound 26AA]
21 | 19.4 | – | Cc1cnccc1-c1cccc(C(C)(C)N(CCCC(=O)NCC(=O)O)S(=O)(=O)c2cccc(Cl)c2C)c1 [Compound 21AB, 2-(4-(3-chloro-2-methyl-N-(2-(3-(3-methylpyridin-4-yl)phenyl)propan-2-yl)phenylsulfonamido)butanamido)acetic acid]
